Reference: PubChem BioAssay (NCI)
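Exposure lasted 48 hours, with cells grown in 96-well plates and compounds tested at five concentrations. TGI denotes the concentration required for complete inhibition of growth.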

Legend:
Experiment in all cases: inhibition of tumour cell growth, NCI panel, 48 h
786-0 renal = tested on: 786-0 renal
A549 NSCLC = tested on: A549 NSCLC
ACHN renal = tested on: ACHN renal
CAKI-1 renal = tested on: CAKI-1 renal
CCRF-CEM leukemia = tested on: CCRF-CEM leukemia
COLO 205 colon = tested on: COLO 205 colon
DLD-1 colon = tested on: DLD-1 colon
DMS 273 small cell lung = tested on: DMS 273 small cell lung
EKVX NSCLC = tested on: EKVX NSCLC
HCT-116 colon = tested on: HCT-116 colon
HCT-15 colon = tested on: HCT-15 colon
HL-60(TB) leukemia = tested on: HL-60(TB) leukemia
HOP-18 NSCLC = tested on: HOP-18 NSCLC
HOP-62 NSCLC = tested on: HOP-62 NSCLC
HOP-92 NSCLC = tested on: HOP-92 NSCLC
HT29 colon = tested on: HT29 colon
IGROV1 ovarian = tested on: IGROV1 ovarian
K-562 leukemia = tested on: K-562 leukemia
KM20L2 colon = tested on: KM20L2 colon
LOX IMVI melanoma = tested on: LOX IMVI melanoma
M14 melanoma = tested on: M14 melanoma
M19-MEL melanoma = tested on: M19-MEL melanoma
MALME-3M melanoma = tested on: MALME-3M melanoma
MOLT-4 leukemia = tested on: MOLT-4 leukemia
NCI-H23 lung = tested on: NCI-H23 lung
NCI-H460 lung = tested on: NCI-H460 lung
OVCAR-3 ovarian = tested on: OVCAR-3 ovarian
OVCAR-4 ovarian = tested on: OVCAR-4 ovarian
OVCAR-8 ovarian = tested on: OVCAR-8 ovarian
RPMI-8226 leukemia = tested on: RPMI-8226 leukemia
RXF 393 renal = tested on: RXF 393 renal
SF-295 CNS = tested on: SF-295 CNS
SK-MEL-2 melanoma = tested on: SK-MEL-2 melanoma
SK-MEL-28 melanoma = tested on: SK-MEL-28 melanoma
SK-MEL-5 melanoma = tested on: SK-MEL-5 melanoma
SK-OV-3 ovarian = tested on: SK-OV-3 ovarian
SN12C renal = tested on: SN12C renal
SNB-19 CNS = tested on: SNB-19 CNS
SNB-75 CNS = tested on: SNB-75 CNS
SNB-78 CNS = tested on: SNB-78 CNS
TK-10 renal = tested on: TK-10 renal
U251 CNS = tested on: U251 CNS
UACC-257 melanoma = tested on: UACC-257 melanoma
UACC-62 melanoma = tested on: UACC-62 melanoma
UO-31 renal = tested on: UO-31 renal
XF 498 CNS = tested on: XF 498 CNS
KM12 colon = tested on: KM12 colon
LXFL 529 NSCLC = tested on: LXFL 529 NSCLC
NCI-H522 lung = tested on: NCI-H522 lung
OVCAR-5 ovarian = tested on: OVCAR-5 ovarian
SF-268 CNS = tested on: SF-268 CNS
SF-539 CNS = tested on: SF-539 CNS
SR leukemia = tested on: SR leukemia
A498 renal = tested on: A498 renal
DMS 114 small cell lung = tested on: DMS 114 small cell lung
HCC-2998 colon = tested on: HCC-2998 colon
NCI-H226 lung = tested on: NCI-H226 lung
RXF-631 renal = tested on: RXF-631 renal
SW-620 colon = tested on: SW-620 colon

SMILES: CCN(CC)c1ccc(N=C2C=CC(=C(C#N)C#N)c3ccccc32)c(C)c1
- TGI (786-0 renal): 6.24 µM
- TGI (A549 NSCLC): 5.33 µM
- TGI (ACHN renal): 10.9 µM
- TGI (CAKI-1 renal): 5.4 µM
- TGI (CCRF-CEM leukemia): 6.1 µM
- TGI (COLO 205 colon): 8.05 µM
- TGI (DLD-1 colon): 6.5 µM
- TGI (DMS 273 small cell lung): 6.51 µM
- TGI (EKVX NSCLC): 18.4 µM
- TGI (HCT-116 colon): 5.8 µM
- TGI (HCT-15 colon): 10.2 µM
- TGI (HL-60(TB) leukemia): 3.61 µM
- TGI (HOP-18 NSCLC): 10.3 µM
- TGI (HOP-62 NSCLC): 6.25 µM
- TGI (HOP-92 NSCLC): 2.19 µM
- TGI (HT29 colon): 24.9 µM
- TGI (IGROV1 ovarian): 8.86 µM
- TGI (K-562 leukemia): 5.47 µM
- TGI (KM20L2 colon): 6.75 µM
- TGI (LOX IMVI melanoma): 4.75 µM
- TGI (M14 melanoma): 3.6 µM
- TGI (M19-MEL melanoma): 5.77 µM
- TGI (MALME-3M melanoma): 4.51 µM
- TGI (MOLT-4 leukemia): 9.63 µM
- TGI (NCI-H23 lung): 3.33 µM
- TGI (NCI-H460 lung): 8.41 µM
- TGI (OVCAR-3 ovarian): 3.82 µM
- TGI (OVCAR-4 ovarian): 5.63 µM
- TGI (OVCAR-8 ovarian): 7.28 µM
- TGI (RPMI-8226 leukemia): 15.2 µM
- TGI (RXF 393 renal): 3.24 µM
- TGI (SF-295 CNS): 5.66 µM
- TGI (SK-MEL-2 melanoma): 5.48 µM
- TGI (SK-MEL-28 melanoma): 4.22 µM
- TGI (SK-MEL-5 melanoma): 2.92 µM
- TGI (SK-OV-3 ovarian): 24 µM
- TGI (SN12C renal): 7.86 µM
- TGI (SNB-19 CNS): 13.1 µM
- TGI (SNB-75 CNS): 5.69 µM
- TGI (SNB-78 CNS): 6.42 µM
- TGI (TK-10 renal): 9.58 µM
- TGI (U251 CNS): 3.44 µM
- TGI (UACC-257 melanoma): 5.78 µM
- TGI (UACC-62 melanoma): 3.43 µM
- TGI (UO-31 renal): 6.95 µM
- TGI (XF 498 CNS): 2.89 µM

SMILES: COC(=O)C(Cc1ccccc1)N=Cc1c(O)c(O)c(C(C)C)c2cc(C)c(-c3c(C)cc4c(C(C)C)c(O)c(O)c(C=NC(Cc5ccccc5)C(=O)OC)c4c3O)c(O)c12 (stereo not given)
- TGI (ACHN renal): 74.3 µM
- TGI (CCRF-CEM leukemia): 38.5 µM
- TGI (COLO 205 colon): 92.9 µM
- TGI (HL-60(TB) leukemia): 59 µM
- TGI (HOP-62 NSCLC): > 100 µM
- TGI (HOP-92 NSCLC): 77 µM
- TGI (HT29 colon): 32.5 µM
- TGI (IGROV1 ovarian): > 100 µM
- TGI (K-562 leukemia): > 100 µM
- TGI (KM12 colon): 39.7 µM
- TGI (KM20L2 colon): 55.3 µM
- TGI (LXFL 529 NSCLC): 38.5 µM
- TGI (M19-MEL melanoma): > 100 µM
- TGI (MALME-3M melanoma): > 100 µM
- TGI (MOLT-4 leukemia): 11.6 µM
- TGI (NCI-H23 lung): 74.6 µM
- TGI (NCI-H460 lung): 51.4 µM
- TGI (NCI-H522 lung): 54.7 µM
- TGI (OVCAR-3 ovarian): 52.1 µM
- TGI (OVCAR-4 ovarian): 64.5 µM
- TGI (OVCAR-5 ovarian): 49.3 µM
- TGI (RPMI-8226 leukemia): 92.3 µM
- TGI (RXF 393 renal): 35 µM
- TGI (SF-268 CNS): > 100 µM
- TGI (SF-295 CNS): 35.6 µM
- TGI (SF-539 CNS): 43.6 µM
- TGI (SK-MEL-2 melanoma): 44 µM
- TGI (SK-MEL-28 melanoma): > 100 µM
- TGI (SK-OV-3 ovarian): 81 µM
- TGI (SNB-19 CNS): > 100 µM
- TGI (SNB-75 CNS): > 100 µM
- TGI (SNB-78 CNS): 29.2 µM
- TGI (SR leukemia): 10.1 µM
- TGI (U251 CNS): 55.2 µM
- TGI (UACC-257 melanoma): 63 µM
- TGI (UACC-62 melanoma): 55.9 µM
- TGI (UO-31 renal): 80.7 µM

SMILES: CCc1cccc(CC)c1NC(=O)C1=CNC(C)=C(C(=O)Nc2c(CC)cccc2CC)C1c1ccc(O)c(OC)c1 (stereo not given)
- TGI (786-0 renal): > 100 µM
- TGI (A498 renal): 76.4 µM
- TGI (A549 NSCLC): > 100 µM
- TGI (ACHN renal): > 100 µM
- TGI (CAKI-1 renal): > 100 µM
- TGI (CCRF-CEM leukemia): 61 µM
- TGI (COLO 205 colon): > 100 µM
- TGI (DLD-1 colon): > 100 µM
- TGI (DMS 114 small cell lung): > 100 µM
- TGI (EKVX NSCLC): > 100 µM
- TGI (HCC-2998 colon): 88.8 µM
- TGI (HL-60(TB) leukemia): 57.4 µM
- TGI (HOP-62 NSCLC): 86.8 µM
- TGI (HOP-92 NSCLC): > 100 µM
- TGI (HT29 colon): 80.2 µM
- TGI (IGROV1 ovarian): > 100 µM
- TGI (K-562 leukemia): 99.5 µM
- TGI (KM12 colon): 87.4 µM
- TGI (KM20L2 colon): > 100 µM
- TGI (LOX IMVI melanoma): > 100 µM
- TGI (LXFL 529 NSCLC): > 100 µM
- TGI (M14 melanoma): > 100 µM
- TGI (M19-MEL melanoma): > 100 µM
- TGI (MALME-3M melanoma): > 100 µM
- TGI (MOLT-4 leukemia): 82.9 µM
- TGI (NCI-H226 lung): 89.7 µM
- TGI (NCI-H23 lung): > 100 µM
- TGI (NCI-H460 lung): 98.8 µM
- TGI (NCI-H522 lung): 77.4 µM
- TGI (OVCAR-3 ovarian): 53.9 µM
- TGI (OVCAR-4 ovarian): 91.4 µM
- TGI (OVCAR-5 ovarian): > 100 µM
- TGI (OVCAR-8 ovarian): > 100 µM
- TGI (RPMI-8226 leukemia): 45.3 µM
- TGI (RXF 393 renal): 93.9 µM
- TGI (RXF-631 renal): > 100 µM
- TGI (SF-268 CNS): > 100 µM
- TGI (SF-295 CNS): 73.8 µM
- TGI (SF-539 CNS): 51.3 µM
- TGI (SK-MEL-2 melanoma): 91.8 µM
- TGI (SK-MEL-28 melanoma): > 100 µM
- TGI (SK-MEL-5 melanoma): > 100 µM
- TGI (SK-OV-3 ovarian): > 100 µM
- TGI (SN12C renal): > 100 µM
- TGI (SNB-19 CNS): > 100 µM
- TGI (SNB-75 CNS): > 100 µM
- TGI (SNB-78 CNS): > 100 µM
- TGI (SW-620 colon): > 100 µM
- TGI (TK-10 renal): > 100 µM
- TGI (U251 CNS): > 100 µM
- TGI (UACC-257 melanoma): 92.7 µM
- TGI (UO-31 renal): > 100 µM
- TGI (XF 498 CNS): 67.3 µM

SMILES: C(=NCCN=Cc1cccc2ccccc12)c1cccc2ccccc12
- TGI (786-0 renal): > 100 µM
- TGI (A549 NSCLC): > 100 µM
- TGI (ACHN renal): > 100 µM
- TGI (CAKI-1 renal): > 100 µM
- TGI (COLO 205 colon): > 100 µM
- TGI (DLD-1 colon): > 100 µM
- TGI (DMS 114 small cell lung): > 100 µM
- TGI (DMS 273 small cell lung): > 100 µM
- TGI (EKVX NSCLC): > 100 µM
- TGI (HCC-2998 colon): > 100 µM
- TGI (HCT-116 colon): > 100 µM
- TGI (HCT-15 colon): > 100 µM
- TGI (HOP-18 NSCLC): > 100 µM
- TGI (HT29 colon): > 100 µM
- TGI (IGROV1 ovarian): > 100 µM
- TGI (K-562 leukemia): > 100 µM
- TGI (KM12 colon): > 100 µM
- TGI (KM20L2 colon): > 100 µM
- TGI (LXFL 529 NSCLC): > 100 µM
- TGI (M19-MEL melanoma): > 100 µM
- TGI (MALME-3M melanoma): > 100 µM
- TGI (MOLT-4 leukemia): > 100 µM
- TGI (NCI-H226 lung): > 100 µM
- TGI (NCI-H23 lung): > 100 µM
- TGI (NCI-H460 lung): > 100 µM
- TGI (NCI-H522 lung): > 100 µM
- TGI (OVCAR-4 ovarian): > 100 µM
- TGI (OVCAR-5 ovarian): > 100 µM
- TGI (OVCAR-8 ovarian): > 100 µM
- TGI (RPMI-8226 leukemia): > 100 µM
- TGI (RXF 393 renal): > 100 µM
- TGI (SF-295 CNS): > 100 µM
- TGI (SF-539 CNS): > 100 µM
- TGI (SK-MEL-2 melanoma): > 100 µM
- TGI (SK-MEL-28 melanoma): > 100 µM
- TGI (SK-MEL-5 melanoma): > 100 µM
- TGI (SK-OV-3 ovarian): > 100 µM
- TGI (SN12C renal): > 100 µM
- TGI (SNB-19 CNS): > 100 µM
- TGI (SNB-75 CNS): > 100 µM
- TGI (SNB-78 CNS): > 100 µM
- TGI (SR leukemia): > 100 µM
- TGI (SW-620 colon): > 100 µM
- TGI (TK-10 renal): > 100 µM
- TGI (U251 CNS): > 100 µM
- TGI (UACC-257 melanoma): > 100 µM
- TGI (UACC-62 melanoma): > 100 µM
- TGI (UO-31 renal): > 100 µM
- TGI (XF 498 CNS): > 100 µM
